Assay results from US12116344B2, “Crystalline forms of a pharmaceutical compound” (Azafaros B.V., priority 2020, dated 2024).
“Also recorded” adds a separate entry of the source.

Experiments:
[1] = Dynamic vapour sorption (DVS), hygroscopicity; type: physicochemical; conditions: listed as Form 3
Description: Dynamic vapour sorption (DVS) measurements were performed with an SPS11-100n “Sorptions Prüfsystem” from ProUmid (formerly “Projekt Messtechnik”), August-Nagel-Str. 23, 89079 Ulm (Germany). About 5 mg to 20 mg of sample was put into an aluminum sample pan. Humidity change rates of 5% per hour were used. The applied measurement program can be described as follows:
The sample was placed on an aluminium or platinum holder on top of a microbalance and allowed to equilibrate at a relative humidity (RH) of 50% before starting the pre-defined humidity programs: • (1) 2 h at 50% RH • (2) 50→0% RH (5%/h); 5 h at 0% RH • (3) 0→95% RH (5%/h); 5 h at 95% RH • (4) 95→0% RH (5%/h); 5 h at 0% RH • (5) 0→95% RH (5%/h); 5 h at 95% RH • (6) 95→50% RH (5%/h); 2 h at 50% RH

[2] = Stability of the test item in vehicle (acidified water); type: physicochemical; conditions: for Stability in the vehicle: 0.01 to 2 mg/mL
[3] = Body weight of NPC mice, PND 11 to Week 9; type: in vivo
Description: Body weights and health status were recorded daily for the first week and later once a week.
24 NPC1 (−/−) mice (groups D to I) were treated per oral gavage (10 mL/kg) with AZ-3102-00 from post-natal day 11 (P11) to post-natal-day 70 (P70). Dosing will start at 1.5 mg/kg from P11 to P25, followed by 3 mg/kg from P26 to P70. Control mice included 6 NPC1 (−/−) and 4 NPC (+/−) mice treated with vehicle and 4 NPC (+/+) mice received AZ-3102-00 (groups A to C).
Graph represents the progress of body weights [g] per group measured daily during the first treatment week and weekly thereafter.

[4] = target: T1, glucosylceramide synthase (GCS) (Homo sapiens, UniProt Q16739); conditions: stated in words only, no test described; cited from earlier work
T1 sequence (Q16739 1-394): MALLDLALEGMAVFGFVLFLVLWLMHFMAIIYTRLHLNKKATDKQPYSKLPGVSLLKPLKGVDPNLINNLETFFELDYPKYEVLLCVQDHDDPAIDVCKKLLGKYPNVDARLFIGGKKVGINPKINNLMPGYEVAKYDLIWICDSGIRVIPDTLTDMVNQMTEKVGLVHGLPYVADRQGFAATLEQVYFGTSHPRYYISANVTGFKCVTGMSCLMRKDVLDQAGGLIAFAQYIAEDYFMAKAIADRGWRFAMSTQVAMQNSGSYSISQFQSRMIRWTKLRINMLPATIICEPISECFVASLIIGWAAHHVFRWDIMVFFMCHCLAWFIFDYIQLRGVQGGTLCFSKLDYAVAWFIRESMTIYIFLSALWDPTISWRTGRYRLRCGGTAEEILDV

[5] = target: T2, non-lysosomal glucosylcerebrosidase (GbA2) (Homo sapiens, UniProt Q9HCG7); conditions: stated in words only, no test described; cited from earlier work
T2 sequence (Q9HCG7 1-927): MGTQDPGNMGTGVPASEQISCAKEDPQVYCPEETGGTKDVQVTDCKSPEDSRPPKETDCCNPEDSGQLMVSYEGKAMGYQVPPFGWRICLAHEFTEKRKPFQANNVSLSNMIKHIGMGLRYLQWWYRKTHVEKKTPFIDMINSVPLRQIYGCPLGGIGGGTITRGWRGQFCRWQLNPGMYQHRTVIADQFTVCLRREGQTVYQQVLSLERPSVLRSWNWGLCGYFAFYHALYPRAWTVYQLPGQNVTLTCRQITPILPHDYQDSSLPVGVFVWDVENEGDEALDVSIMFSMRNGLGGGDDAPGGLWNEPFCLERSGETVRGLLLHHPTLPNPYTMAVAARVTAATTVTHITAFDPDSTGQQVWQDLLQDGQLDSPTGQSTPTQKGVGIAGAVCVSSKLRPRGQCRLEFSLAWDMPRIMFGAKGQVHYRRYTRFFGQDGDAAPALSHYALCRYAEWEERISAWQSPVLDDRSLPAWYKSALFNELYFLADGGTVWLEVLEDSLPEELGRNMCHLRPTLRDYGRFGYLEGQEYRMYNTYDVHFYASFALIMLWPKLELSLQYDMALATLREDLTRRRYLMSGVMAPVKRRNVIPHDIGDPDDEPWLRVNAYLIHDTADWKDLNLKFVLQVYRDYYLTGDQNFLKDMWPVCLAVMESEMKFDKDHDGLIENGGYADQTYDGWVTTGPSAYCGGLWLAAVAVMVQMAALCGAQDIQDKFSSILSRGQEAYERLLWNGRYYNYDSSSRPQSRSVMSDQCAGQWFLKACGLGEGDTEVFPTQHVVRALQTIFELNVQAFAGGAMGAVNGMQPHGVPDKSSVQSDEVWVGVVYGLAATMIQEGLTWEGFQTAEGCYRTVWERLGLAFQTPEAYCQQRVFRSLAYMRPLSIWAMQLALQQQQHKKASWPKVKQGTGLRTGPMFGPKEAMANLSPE

- Stability in the vehicle ([2]; freezer (≤−15° C.)): at least 3 weeks
- Stability in the vehicle ([2]; refrigerated (2-8° C.)): at least 8 days
- Stability in the vehicle ([2]; room temperature protected from light): at least 24 hours
- Stability in vehicle ([2]; under nitrogen frozen in a freezer (≤−15° C.)): for at least 21 days (3 weeks).
SMILES: OC[C@H]1[C@@H](O)[C@H](O)[C@@H](O)CN1CCCCCOCc1ccc(-c2ccccc2)c(F)c1 [AZ-3102]
- Hygroscopicity (description) [1]: non-hygroscopic or substantially non-hygroscopic; also recorded: substantially non-hygroscopic
- Stability in vehicle ([2]; under nitrogen at room temperature protected from light): light for at least 24 h, stored under nitrogen
- Body weight gain of treated NPC (−/−) mice versus untreated NPC (−/−) mice ([3]; both genders, daily oral gavage P11-P70, PND 11 to Week 9): gained more than the NPC (−/−) untreated animals
- General health as indicated by average percent body weight gains ([3]; daily oral gavage P11-P70, 1.5 mg/kg (P11-P25) then 3 mg/kg (P26-P70)): not impeded
- Potency as inhibitor of GCS [4]: highly potent (nM)
- Potency as inhibitor of GbA2 [5]: highly potent (nM)
